What was measured:
[1] = tested on: BaF3 cells expressing wildtype EGFR; assay: Antiproliferative activity (MTT) against control BaF3 cells expressing wildtype EGFR; assay type: cell-based; settings: Mus musculus, BAF3 parental cells
Outline: (§1)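 Viability by MTT colorimetry. Cells: BaF3 transfected with mutant EGFR, plus a wildtype-EGFR BaF3 counter-screen.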

[2] = molecular target: EGFR L858R (Homo sapiens, UniProt P00533, L858R); assay: Kinase inhibitory activity against EGFR bearing the L858R mutation; assay type: biochemical; settings: 10 pt curves, 3 μM top concentration, 10 μM ATP; read-out: IC50 for kinase inhibition, EGFR L858R
Outline: (§2)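 Compounds were titrated over ten points starting at 3 μM, each point in singlicate, and kinase activity was measured in the presence of 10 μM ATP.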

[3] = molecular target: T1, BaF3 cells expressing the target EGFR mutations (Homo sapiens, UniProt P00533, T790M, cells depend on it, form not given); assay: Antiproliferative activity (MTT) against BaF3 cells expressing the target EGFR mutations; assay type: cell-based; settings: BAF3 EGFR DEL T790M PURO POOL cells, read-out: IC50, BAF3 EGFR DEL T790M PURO POOL
T1 construct: IC50, BAF3 EGFR DEL T790M PURO POOL; other: BAF3 EGFR DEL T790M PURO POOL cells, MTT; other: BAF3 EGFR DEL T790M PURO POOL cells; MTT
Outline: as §1

[4] = molecular target: T2, BaF3 cells expressing the target EGFR mutations (Homo sapiens, UniProt P00533, T790M/L858R, cells depend on it); assay: as above; assay type: cell-based; settings: BAF3 EGFR L858R-T790M PURO POOL cells, read-out: IC50, BAF3 EGFR L858R-T790M PURO POOL
T2 construct: IC50, BAF3 EGFR L858R-T790M PURO POOL; other: BAF3 EGFR L858R-T790M PURO POOL cells, MTT; IC50, BAF3 EGFR L858R-T790M PURO POOL; other: BAF3 EGFR L858R-T790M PURO POOL cells; MTT
Outline: as §1

[5] = molecular target: EGFR L858R/T790M (Homo sapiens, UniProt P00533, L858R/T790M); assay: Kinase inhibitory activity against EGFR bearing the L858R/T790M double mutation; assay type: biochemical; settings: 10 pt curves, 3 μM top concentration, 10 μM ATP; read-out: IC50 for kinase inhibition, EGFR L858R T790M
Outline: as §2

[6] = molecular target: human EGFR (native sequence) (Homo sapiens, UniProt P00533); assay: Kinase inhibitory activity against human EGFR (native sequence); assay type: biochemical; settings: 10 pt curves, 3 μM top concentration, 10 μM ATP; read-out: IC50 for kinase inhibition, EGFR
Outline: as §2

human EGFR (native sequence), sequence (P00533 25-1210): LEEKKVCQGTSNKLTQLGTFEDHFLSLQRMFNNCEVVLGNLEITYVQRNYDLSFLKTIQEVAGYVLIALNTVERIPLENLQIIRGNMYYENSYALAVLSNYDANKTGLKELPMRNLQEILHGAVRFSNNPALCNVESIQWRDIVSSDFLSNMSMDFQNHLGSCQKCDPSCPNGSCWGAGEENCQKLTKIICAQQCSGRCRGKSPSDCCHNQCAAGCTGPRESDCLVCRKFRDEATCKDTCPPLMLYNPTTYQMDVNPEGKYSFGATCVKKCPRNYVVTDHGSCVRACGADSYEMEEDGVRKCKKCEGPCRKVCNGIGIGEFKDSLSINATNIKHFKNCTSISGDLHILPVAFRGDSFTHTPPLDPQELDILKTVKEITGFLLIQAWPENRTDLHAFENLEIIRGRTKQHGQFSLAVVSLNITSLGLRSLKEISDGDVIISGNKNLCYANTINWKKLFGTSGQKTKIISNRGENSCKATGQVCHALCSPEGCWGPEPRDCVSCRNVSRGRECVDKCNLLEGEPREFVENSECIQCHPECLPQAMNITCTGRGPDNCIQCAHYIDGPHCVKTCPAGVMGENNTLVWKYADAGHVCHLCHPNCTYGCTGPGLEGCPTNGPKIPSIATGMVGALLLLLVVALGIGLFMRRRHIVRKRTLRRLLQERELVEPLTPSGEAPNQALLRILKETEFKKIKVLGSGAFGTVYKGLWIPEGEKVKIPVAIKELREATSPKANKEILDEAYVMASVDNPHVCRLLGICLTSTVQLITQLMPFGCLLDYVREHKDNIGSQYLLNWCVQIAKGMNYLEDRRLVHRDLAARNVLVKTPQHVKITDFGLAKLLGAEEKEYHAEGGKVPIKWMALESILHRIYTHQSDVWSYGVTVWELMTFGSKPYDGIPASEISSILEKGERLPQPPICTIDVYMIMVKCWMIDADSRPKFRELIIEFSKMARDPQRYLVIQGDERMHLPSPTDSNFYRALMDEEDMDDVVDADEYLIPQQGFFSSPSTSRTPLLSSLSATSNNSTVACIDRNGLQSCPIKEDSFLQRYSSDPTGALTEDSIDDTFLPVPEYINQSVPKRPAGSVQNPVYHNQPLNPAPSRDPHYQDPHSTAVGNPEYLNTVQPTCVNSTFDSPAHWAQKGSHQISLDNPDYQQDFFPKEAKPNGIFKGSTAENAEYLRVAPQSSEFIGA
EGFR L858R/T790M, sequence (P00533 25-1210 T790M/L858R): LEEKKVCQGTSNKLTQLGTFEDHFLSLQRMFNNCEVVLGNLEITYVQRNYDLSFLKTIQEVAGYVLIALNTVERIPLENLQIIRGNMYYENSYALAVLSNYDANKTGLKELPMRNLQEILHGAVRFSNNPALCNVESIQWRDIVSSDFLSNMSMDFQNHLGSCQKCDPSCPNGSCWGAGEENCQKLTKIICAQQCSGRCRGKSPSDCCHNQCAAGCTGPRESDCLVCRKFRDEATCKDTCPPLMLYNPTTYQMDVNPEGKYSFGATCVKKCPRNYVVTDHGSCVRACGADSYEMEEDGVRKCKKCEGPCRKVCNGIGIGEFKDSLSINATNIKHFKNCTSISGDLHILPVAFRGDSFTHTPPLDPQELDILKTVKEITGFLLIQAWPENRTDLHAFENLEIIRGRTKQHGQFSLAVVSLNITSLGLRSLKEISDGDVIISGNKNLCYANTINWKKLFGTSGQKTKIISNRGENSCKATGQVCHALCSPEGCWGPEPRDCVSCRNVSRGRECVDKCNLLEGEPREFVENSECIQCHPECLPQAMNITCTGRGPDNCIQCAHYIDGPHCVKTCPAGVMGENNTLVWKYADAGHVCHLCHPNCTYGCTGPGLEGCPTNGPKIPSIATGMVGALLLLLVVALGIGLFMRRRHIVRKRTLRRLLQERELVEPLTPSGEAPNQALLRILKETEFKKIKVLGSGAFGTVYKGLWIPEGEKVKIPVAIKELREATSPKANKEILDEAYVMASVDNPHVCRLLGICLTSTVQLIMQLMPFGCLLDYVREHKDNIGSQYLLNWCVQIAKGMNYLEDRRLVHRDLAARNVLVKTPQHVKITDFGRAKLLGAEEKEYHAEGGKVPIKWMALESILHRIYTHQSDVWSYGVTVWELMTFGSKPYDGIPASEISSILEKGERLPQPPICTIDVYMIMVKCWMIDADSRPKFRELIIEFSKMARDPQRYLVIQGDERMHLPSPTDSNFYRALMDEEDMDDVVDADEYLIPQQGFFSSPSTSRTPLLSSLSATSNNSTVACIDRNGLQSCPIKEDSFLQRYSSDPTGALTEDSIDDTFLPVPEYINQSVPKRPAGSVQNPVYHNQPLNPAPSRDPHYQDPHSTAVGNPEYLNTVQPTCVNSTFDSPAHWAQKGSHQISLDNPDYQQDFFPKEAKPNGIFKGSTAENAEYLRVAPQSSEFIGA
T2 sequence (P00533 whole entry T790M/L858R): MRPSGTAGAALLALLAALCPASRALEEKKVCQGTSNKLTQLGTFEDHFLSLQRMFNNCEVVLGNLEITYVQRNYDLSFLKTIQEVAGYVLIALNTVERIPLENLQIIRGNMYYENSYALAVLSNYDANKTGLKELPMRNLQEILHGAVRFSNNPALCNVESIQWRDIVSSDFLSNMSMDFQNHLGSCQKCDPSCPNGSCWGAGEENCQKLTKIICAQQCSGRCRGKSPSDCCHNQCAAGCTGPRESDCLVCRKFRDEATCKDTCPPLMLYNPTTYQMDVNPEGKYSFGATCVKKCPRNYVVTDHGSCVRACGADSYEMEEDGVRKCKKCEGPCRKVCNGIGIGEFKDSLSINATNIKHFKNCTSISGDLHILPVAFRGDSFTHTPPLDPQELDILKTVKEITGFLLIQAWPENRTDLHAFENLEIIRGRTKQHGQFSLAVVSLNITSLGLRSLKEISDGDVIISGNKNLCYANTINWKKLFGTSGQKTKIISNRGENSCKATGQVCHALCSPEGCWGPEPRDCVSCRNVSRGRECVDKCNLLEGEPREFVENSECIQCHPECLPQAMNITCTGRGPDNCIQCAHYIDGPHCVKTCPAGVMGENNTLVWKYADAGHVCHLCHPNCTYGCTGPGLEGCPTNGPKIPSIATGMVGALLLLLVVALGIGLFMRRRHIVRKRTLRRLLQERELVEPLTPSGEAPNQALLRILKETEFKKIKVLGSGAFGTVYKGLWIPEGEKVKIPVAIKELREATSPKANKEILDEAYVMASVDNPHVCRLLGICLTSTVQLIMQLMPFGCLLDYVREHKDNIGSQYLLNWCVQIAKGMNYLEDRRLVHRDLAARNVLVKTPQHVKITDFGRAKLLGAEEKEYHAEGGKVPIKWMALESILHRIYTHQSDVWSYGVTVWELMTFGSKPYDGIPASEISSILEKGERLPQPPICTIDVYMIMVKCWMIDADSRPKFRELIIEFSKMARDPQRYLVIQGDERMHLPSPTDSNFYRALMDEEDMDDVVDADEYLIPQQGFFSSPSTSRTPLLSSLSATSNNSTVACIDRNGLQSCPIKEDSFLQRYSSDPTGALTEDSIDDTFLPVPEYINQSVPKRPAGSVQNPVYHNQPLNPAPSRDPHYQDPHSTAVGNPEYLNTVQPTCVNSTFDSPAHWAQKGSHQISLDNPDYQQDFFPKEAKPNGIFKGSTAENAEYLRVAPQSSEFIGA
T1 sequence (P00533 with tags, fused parts or gaps DEL746-750/T790M, form open): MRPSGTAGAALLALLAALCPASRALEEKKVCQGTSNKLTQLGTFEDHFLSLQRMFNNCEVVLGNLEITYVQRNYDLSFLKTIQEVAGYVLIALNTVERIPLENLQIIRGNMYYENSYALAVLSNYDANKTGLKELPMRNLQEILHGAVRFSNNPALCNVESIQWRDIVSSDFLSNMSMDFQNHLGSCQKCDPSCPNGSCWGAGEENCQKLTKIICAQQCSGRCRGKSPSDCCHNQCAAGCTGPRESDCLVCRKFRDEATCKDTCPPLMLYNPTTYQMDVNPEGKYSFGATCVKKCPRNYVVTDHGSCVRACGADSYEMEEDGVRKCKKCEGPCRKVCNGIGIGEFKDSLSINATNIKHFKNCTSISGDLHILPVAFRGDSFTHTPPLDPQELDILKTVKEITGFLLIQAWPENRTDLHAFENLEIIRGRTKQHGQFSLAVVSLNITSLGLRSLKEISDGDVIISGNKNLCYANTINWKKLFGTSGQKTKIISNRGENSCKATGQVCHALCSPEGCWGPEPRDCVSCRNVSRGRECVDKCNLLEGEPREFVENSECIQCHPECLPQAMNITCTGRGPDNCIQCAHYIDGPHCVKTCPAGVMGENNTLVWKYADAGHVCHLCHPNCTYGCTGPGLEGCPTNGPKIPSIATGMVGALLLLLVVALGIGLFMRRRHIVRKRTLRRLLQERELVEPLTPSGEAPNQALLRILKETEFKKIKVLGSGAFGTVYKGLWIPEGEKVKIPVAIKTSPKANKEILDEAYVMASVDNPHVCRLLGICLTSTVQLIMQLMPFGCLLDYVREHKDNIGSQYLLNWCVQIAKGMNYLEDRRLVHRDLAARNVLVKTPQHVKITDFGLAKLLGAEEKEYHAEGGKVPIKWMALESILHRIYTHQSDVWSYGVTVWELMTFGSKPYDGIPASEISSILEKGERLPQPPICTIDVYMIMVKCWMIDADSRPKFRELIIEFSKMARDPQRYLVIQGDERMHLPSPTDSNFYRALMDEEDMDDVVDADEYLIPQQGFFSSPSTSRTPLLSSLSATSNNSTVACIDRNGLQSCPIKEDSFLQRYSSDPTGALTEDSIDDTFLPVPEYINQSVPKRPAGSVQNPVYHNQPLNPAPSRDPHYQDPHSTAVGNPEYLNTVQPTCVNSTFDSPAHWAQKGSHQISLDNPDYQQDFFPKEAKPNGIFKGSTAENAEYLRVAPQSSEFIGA

Row | IC50 [2] [nM] | GI50 [3] [nM] | GI50 [4] [nM] | IC50 [5] [nM] | IC50 [6] [nM] | SMILES | IC50 [1] [nM]
1 | < 50 | < 50 | < 50 | < 50 | < 50 | C=CC(=O)Nc1cc(Nc2ncc(Cl)c(Nc3ccccc3P(C)(C)=O)n2)c(OC)cc1C#CCN1CCCCC1 [Example 167, N-(5-((5-chloro-4-((2-(dimethylphosphoryl)phenyl)amino)pyrimidin-2-yl)amino)-4-methoxy-2-(3-(piperidin-1-yl)prop-1-yn-1-yl)phenyl)acrylamide] | < 50
2 | < 50 | < 50 | < 50 | < 50 | < 50 | C=CC(=O)Nc1cc(Nc2ncc(Cl)c(Nc3ccccc3P(C)(C)=O)n2)c(OC)cc1C#CCN(C)C1CCCC1 [Example 168, N-(5-((5-chloro-4-((2-(dimethylphosphoryl)phenyl)amino)pyrimidin-2-yl)amino)-2-(3-(cyclopentyl(methyl)amino)prop-1-yn-1-yl)-4-methoxyphenyl)acrylamide] | < 50

— US9834571B2, “Compounds for inhibiting cell proliferation in EGFR-driven cancers” (ARIAD Pharmaceuticals, Inc., priority 2012, dated 2017)
